Data reported in patent US5837718A, “Imidazole-derivatives having agonistic or antagonistic activity on the histamine H3-receptor” (Seed Capital Investment (SCI) B.V., priority 1995, dated 1998).

Target: T1, histamine H3 -receptor (Cavia porcellus, UniProt Q9JI35)
T1 construct: ileum guinea pig; from tissue; host or cells: guinea pig ileum
Assay: Antagonistic activity on the H3-receptor, ileum guinea pig
Type: cell-based
Settings: not given
Description: (§1) The agonistics and antagonistics activities on the H3 -receptor of the various compounds were determined compared to histamine. The test methods used therefor are described in Van der Werf et al., Agents and Actions 20, 3/4 (1987) p. 239-243 and Menkveld et al., European Journal of Pharmacology, 186 (1990) p. 343-347.

T1 sequence (Q9JI35 whole entry): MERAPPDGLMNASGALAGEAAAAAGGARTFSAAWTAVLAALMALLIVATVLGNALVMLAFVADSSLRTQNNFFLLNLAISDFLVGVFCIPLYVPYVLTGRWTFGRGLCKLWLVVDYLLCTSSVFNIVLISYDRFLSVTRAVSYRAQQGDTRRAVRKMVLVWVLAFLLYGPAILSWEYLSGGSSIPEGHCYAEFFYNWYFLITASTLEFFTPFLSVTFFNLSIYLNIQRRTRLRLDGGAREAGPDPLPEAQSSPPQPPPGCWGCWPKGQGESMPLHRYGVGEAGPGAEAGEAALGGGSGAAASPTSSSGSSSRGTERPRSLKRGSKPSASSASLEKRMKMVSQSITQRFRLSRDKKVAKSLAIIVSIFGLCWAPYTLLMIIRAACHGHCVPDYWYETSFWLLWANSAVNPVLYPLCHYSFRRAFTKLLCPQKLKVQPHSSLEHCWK

Going from `N=C(NCc1ccccc1)SCCCc1c[nH]cn1` [VUF 9107, N-benzyl-S-[3-(4(5)-imidazolyl)propyl]isothiourea] to `N=C(NCc1ccccc1)SCCc1c[nH]cn1` [VUF 9028, N-benzyl-S-[2-(imidazol-4-yl)ethyl]isothiourea dipicrate], the Kb rises from 1.58 nM to 15.8 nM (10-fold).

Going from `CN=C(NCCc1ccccc1)SCCc1c[nH]cn1` [VUF 9051] to `N=C(NCCc1ccccc1)SCCc1c[nH]cn1` [VUF 9029, S-[2-(imidazol-4-yl)ethyl]-N-(2-phenylethyl)-isothiourea], the Kb falls from 15.8 nM to 10 nM (1.6-fold).

Going from `NC(=NCc1ccc(Cl)cc1)SCCCc1cnc[nH]1` [VUF 9153, S-[3-(4(5)-imidazolyl)propyl]-N-(4-chlorobenzyl)isothiourea] to `N=C(NCCc1ccccc1)SCCCc1c[nH]cn1` [VUF 9151, S-[3-(4(5)-imidazolyl)propyl]-N-(2-phenylethyl)isothiourea], the Kb rises from 0.126 nM to 1.58 nM (13-fold).

`N=C(NCCCCc1ccccc1)SCCc1c[nH]cn1` [VUF 9031] and `N=C(NCCCc1ccccc1)SCCc1c[nH]cn1` [VUF 9030] are within 1.5-fold of each other in Kb: 20 nM for the first, 25.1 nM for the second.

First: N=C(NCCCc1ccccc1)SCCCc1c[nH]cn1 [VUF 9152, S-[3-(4(5)-imidazolyl)propyl]-N-(3-phenylpropyl)isothiourea]
Second: N=C(NCCSCc1ccccc1)SCCc1c[nH]cn1 [VUF 8404]
The Kb of the first is 7.9-fold lower: 5.01 nM for the first, 39.8 nM for the second.

Same assay, conditions: Table 2, antagonistic activity, ileum guinea pig; read-out: pA2 (converted)

Compared with `N=C(NCCCc1c[nH]cn1)NCCSCc1ccccc1` [VUF 8405], `N=C(NCCSCc1ccccc1)SCCCc1c[nH]cn1` [VUF 8414, N-[2-(benzylthio)ethyl]-S-[3-(imidazol-4-yl)propyl]isothiourea] is 5-fold lower in Kb: 12.6 nM for the first, 2.51 nM for the second.

Going from `NC(=NCCCCc1ccccc1)SCCCc1cnc[nH]1` [VUF 4571, S-[3-(4(5)-imidazolyl)propyl]-N-(4-phenylbutyl)isothiourea] to `N=C(NCCc1ccccc1)NCCc1cnc[nH]1` [VUF 9007, N-[2-(imidazol-4-yl)ethyl]-N'-phenyl-ethylguanidine dipicrate], the Kb rises from 3.98 nM to 501 nM (130-fold).

Compared with `N=C(NCC1CCCCC1)SCCCc1c[nH]cn1` [VUF 9163, N-cyclohexylmethyl-S-[3-(4(5)-imidazolyl)propyl]isothiourea], `N=C(NCCSC(c1ccccc1)c1ccccc1)SCCc1c[nH]cn1` [VUF 8409] is 160-fold higher in Kb: 1.58 nM for the first, 251 nM for the second.

`N=C(NCCc1c[nH]cn1)Nc1ccccc1` [VUF 9006, N-[2-(imidazol-4-yl)ethyl]-N'-phenyl guanidine dipicrate] showed a Kb of 1580 nM.

Target: T2, histamine H3 -receptor (Rattus norvegicus, UniProt Q9QYN8)
T2 construct: Van der Werf et al., Agents and Actions 20, 3/4 (1987) p; 239-243; from tissue
T2 sequence (Q9QYN8 whole entry): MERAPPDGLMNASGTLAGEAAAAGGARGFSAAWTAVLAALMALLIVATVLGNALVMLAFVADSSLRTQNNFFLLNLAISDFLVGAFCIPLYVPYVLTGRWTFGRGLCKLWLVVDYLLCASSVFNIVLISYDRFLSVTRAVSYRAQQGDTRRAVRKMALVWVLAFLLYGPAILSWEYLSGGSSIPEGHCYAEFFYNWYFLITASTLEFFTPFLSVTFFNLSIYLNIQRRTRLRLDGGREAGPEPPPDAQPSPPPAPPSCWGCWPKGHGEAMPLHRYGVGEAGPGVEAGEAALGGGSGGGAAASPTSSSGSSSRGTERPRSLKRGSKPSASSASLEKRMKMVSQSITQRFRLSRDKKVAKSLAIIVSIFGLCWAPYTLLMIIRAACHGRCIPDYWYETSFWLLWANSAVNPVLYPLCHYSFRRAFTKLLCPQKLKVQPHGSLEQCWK
Assay: Antagonistic activity on the H3-receptor, rat cortex
Type: cell-based
Settings: Table 2, antagonistic activity, read-out: pA2 (converted)
Description: as §1

`N=C(Nc1ccccc1)SCCc1c[nH]cn1` [VUF 8397] gave a Kb of 100 nM.

Target: T2, histamine H3 -receptor
Assay: Agonistic activity on the H3-receptor, rat cortex
Type: cell-based
Settings: Table 3, agonistic activity, read-out: pD2 (converted)
Description: (§2) The agonistics and antagonistics activities on the H3 -receptor of the various compounds were determined compared to histamine.

Compound `N=C(N)NCCc1c[nH]cn1` [VUF 83100] has an EC50 of 39.8 nM.

Target: T1, histamine H3 -receptor
Assay: Agonistic activity on the H3-receptor, ileum guinea pig
Type: cell-based
Settings: Table 3, agonistic activity, read-out: pD2 (converted)
Description: as §2

Going from `N=C(N)SCCc1c[nH]cn1` [VUF 8325, S-[2-(4-imidazolyl)ethyl]isothiourea] to `CNC(=N)SCCc1c[nH]cn1` [VUF 8621], the EC50 rises from 7.94 nM to 50.1 nM (6.3-fold).

System: histamine H3 -receptor
Assay: Antagonistic activity on the H3-receptor, test preparation not stated
Type: cell-based
Settings: Example 6 table, test method not stated
Description: as §1

First: COc1ccc(CNC(=N)SCCCc2c[nH]cn2)cc1 [VUF 4654]
Second: COc1ccc(CCNC(=N)SCCCc2c[nH]cn2)cc1 [VUF 4659]
The pA2 of the first is higher: 9.39 for the first, 8.3 for the second.

Compared with `Cc1ccc(CCNC(=N)SCCCc2c[nH]cn2)cc1` [VUF 4658, S-[3-(4(5)-imidazolyl)propyl]-N-[2-(4-methylphenyl)ethyl]isothiourea.2HBr], `Cc1ccc(CNC(=N)SCCCc2c[nH]cn2)cc1` [VUF 4653, S-[3-(4(5)-imidazolyl)propyl]-N-(4-methylbenzyl) isothiourea.2HBr] is higher in pA2: 8.4 for the first, 9.36 for the second.

First: N=C(NCc1ccccc1)SCCCCc1c[nH]cn1 [VUF 4661, N-benzyl-S-[4-(4(5)-imidazolyl)butyl]isothiourea dipicrate]
Second: N=C(NCCc1ccccc1)SCCCCc1c[nH]cn1 [VUF 4662, N-(2-phenylethyl)-S-[4-(4(5)-imidazolyl)butyl]isothiourea dipicrate]
The pA2 of the first is higher: 8.72 for the first, 8.13 for the second.

First: N=C(NCCc1ccc(Cl)cc1)SCCCc1c[nH]cn1 [VUF 4657]
Second: N=C(NCCc1ccc(Br)cc1)SCCCc1c[nH]cn1 [VUF 4598, N-[2-(4-bromophenyl)ethyl]-S-[3-(4(5)-imidazolyl)propyl] isothiourea.2HBr]
The pA2 of the first is higher: 9.2 for the first, 9.0 for the second.

Compared with `N=C(NCc1ccc(F)cc1)SCCCc1c[nH]cn1` [VUF 4650, N-(4-fluorobenzyl)-S-[3-(4(5)-imidazolyl)propyl]isothiourea.2HBr], `N=C(NCc1ccc(Br)cc1)SCCCc1c[nH]cn1` [VUF 4651, N-(4-bromobenzyl)-S-[3-(4(5)-imidazolyl)propyl]isothiourea.2HBr] is higher in pA2: 9.38 for the first, 9.77 for the second.

Going from `N=C(NCc1ccc(Cl)c(Cl)c1)SCCCc1c[nH]cn1` [VUF 4656, N-(3,4-dichlorobenzyl)-S-[3-(4(5)-imidazolyl)propyl] isothiourea.2HBr] to `N=C(NCc1ccc(I)cc1)SCCCc1c[nH]cn1` [VUF 4652, N-(4-iodobenzyl)-S-[3-(4(5)-imidazolyl)propyl]isothiourea.2HBr], the pA2 rises from 8.96 to 9.21.

System: histamine H3 -receptor
Assay: Agonistic activity on the H3-receptor, test preparation not stated
Type: cell-based
Settings: in words
Description: as §1

With `N=C(N)SCCc1c[nH]cn1` [VUF 8325, S-[2-(4-imidazolyl)ethyl]isothiourea] the agonistic activity was “strong agonistic activity”.
